Measurements from ChEMBL document CHEMBL3421576, “N-((1,3-Diphenyl-1H-pyrazol-4-yl)methyl)anilines: A novel class of anti-RSV agents” (Bioorg Med Chem Lett, 2015).
pEC50: −log10 of the molar value.

What was measured:
[1] = test system: Enterovirus C; test: Antiviral activity against Poliovirus Sb-1 infected in African green monkey Vero 76 cells after 2 days by plaque reduction assay; assay type: functional, organism-based
[2] = Cytotoxicity against human MT4 cells assessed as cell viability after 96 hrs by MTT method; assay type: cell-based
[3] = test system: Yellow fever virus; test: Antiviral activity against YFV infected in hamster BHK21 cells assessed as protection against viral-induced cytopathogenecity after 3 to 4 days by MTT method; assay type: functional, organism-based, BHK-21
[4] = test system: Human alphaherpesvirus 1; test: Antiviral activity against HSV1 infected in African green monkey Vero 76 cells after 3 days by plaque reduction assay; assay type: functional, organism-based
[5] = test system: Respiratory syncytial virus; test: Antiviral activity against RSV infected in African green monkey Vero 76 cells after 5 days by plaque reduction assay; assay type: functional, organism-based
[6] = test system: Vaccinia virus; test: Antiviral activity against Vaccinia virus infected in African green monkey Vero 76 cells after 3 days by plaque reduction assay; assay type: functional, organism-based, Orthopoxvirus vaccinia
[7] = Cytotoxicity against hamster BHK21 cells assessed as cell viability after 72 hrs by MTT method; assay type: cell-based, Mesocricetus auratus, BHK-21
[8] = Cytotoxicity against African green monkey Vero 76 cells assessed as cell viability after 48 to 96 hrs by MTT method; assay type: cell-based; conditions: chlorocebus sabaeus
[9] = test system: Bovine viral diarrhea virus 1; test: Antiviral activity against BVDV infected in bovine MDBK cells assessed as protection against viral-induced cytopathogenecity after 3 to 4 days by MTT method; assay type: functional, organism-based
[10] = test system: Vesicular stomatitis virus; test: Antiviral activity against VSV infected in African green monkey Vero 76 cells after 2 days by plaque reduction assay; assay type: functional, organism-based
[11] = test system: Coxsackievirus B5; test: Antiviral activity against Coxsackievirus B5 infected in African green monkey Vero 76 cells after 3 days by plaque reduction assay; assay type: functional, organism-based
[12] = Cytotoxicity against bovine MDBK cells assessed as cell viability after 72 hrs by MTT method; assay type: cell-based, Bos taurus; conditions: cattle
[13] = test system: Human immunodeficiency virus 1; test: Antiviral activity against HIV1 infected in human MT4 cells assessed as protection against viral-induced cytopathogenecity after 4 days by MTT method; assay type: functional, organism-based; conditions: Human immunodeficiency virus 1, MT4, 96 h
[14] = Selectivity index, ratio of CC50 for bovine MDBK cells to EC50 for BVDV infected in bovine MDBK cells
[15] = test system: Mammalian orthoreovirus 1; test: Antiviral activity against Reovirus 1 infected in hamster BHK21 cells assessed as protection against viral-induced cytopathogenecity after 3 to 4 days by MTT method; assay type: functional, cell-based; conditions: Mammalian orthoreovirus 1, BHK-21
[16] = Selectivity index, ratio of CC50 for African green monkey Vero 76 cells to EC50 for RSV infected in African green monkey Vero 76 cells
[17] = Selectivity index, ratio of CC50 for hamster BHK21 cells to EC50 for YFV infected in hamster BHK21 cells; set-up: species or system BHK-21
[18] = Enterovirus C, Sb-1, Vero, 48 h
[19] = Human alphaherpesvirus 1, Vero, 72 h
[20] = human respiratory syncytial virus, Vero, 120 h
[21] = Orthopoxvirus vaccinia, Vero, 72 h
[22] = Bovine viral diarrhea virus isolates and strains, MDBK
[23] = Vesicular stomatitis virus, Vero, 48 h

Compound	pEC50 [1, 18]	CC50 at 96 h [2] [µM]	pEC50 ([3]; Yellow fever virus, BHK-21)	pEC50 [4, 19]	pEC50 [5, 20]	pEC50 [6, 21]	CC50 at 72 h [7] [µM]	CC50 ([8]; Vero 76 cells) [µM]	pEC50 [9, 22]	pEC50 [10, 23]	pEC50 ([11]; Enterovirus B, Vero, 72 h)	CC50 at 72 h [12] [µM]	pEC50 [13]	pEC50 [15]	Ratio CC50/EC50 [16]	other results
Cc1ccc(NCc2cn(-c3ccccc3)nc2-c2ccc(Cl)cc2)cc1	< 4.00	> 100	< 4.00	< 4.00	4.89	< 4.00	> 100	> 100	4.26	< 4.00	< 4.00	> 100	< 4.00	< 4.00	>7.7	Ratio CC50/EC50 [14]: >1.8
Clc1ccc(NCc2cn(-c3ccccc3)nc2-c2ccc(Br)cc2)cc1															>11.1	pEC50 ([1]; vero): < 4.00; pEC50 ([3]; bhk-21): 4.37; pEC50 ([4]; vero): < 4.00; pEC50 ([5]; vero): 5.05; pEC50 ([6]; vero): < 4.00; CC50 ([8]; vero 76): > 100 µM; pEC50 ([9]; mdbk): ≤ 4.00; pEC50 ([10]; vero): < 4.00; pEC50 ([11]; vero): < 4.00; Ratio CC50/EC50 [17]: >2.3
Brc1ccc(NCc2cn(-c3ccccc3)nc2-c2ccc(Br)cc2)cc1	< 4.06	> 100	4.27	< 4.06	5.10	< 4.06	> 100	88	< 4.00	< 4.06	< 4.06	> 100	< 4.00	< 4.00	11	Ratio CC50/EC50 [17]: >1.8
Cc1ccc(NCc2cn(-c3ccccc3)nc2-c2ccc(Br)cc2)cc1	< 4.00	> 100	< 4.00	< 4.00	4.96	< 4.00	> 100	> 100	< 4.00	< 4.00	< 4.00	> 100	< 4.00	< 4.00	>9.1	
Cc1ccc(-c2nn(-c3ccccc3)cc2CNc2ccc(Cl)cc2)cc1	< 4.00	> 100	4.47	< 4.00	4.85	< 4.00	> 100	> 100	< 4.00	< 4.00	< 4.00	> 100	< 4.00	< 4.00	>7.1	Ratio CC50/EC50 [17]: >2.9
Cc1ccc(-c2nn(-c3ccccc3)cc2CNc2ccc(Br)cc2)cc1	< 4.04	> 100	< 4.00	< 4.04	4.96	< 4.04	> 100	92	< 4.00	< 4.04	< 4.04	> 100	< 4.00	< 4.00	8.4	
Cc1ccc(NCc2cn(-c3ccccc3)nc2-c2ccc(C)cc2)cc1	< 4.00	> 100	< 4.00	< 4.00	4.55	< 4.00	> 100	> 100	< 4.00	< 4.00	< 4.00	> 100	< 4.00	< 4.00	>3.6	
Cc1ccc(-c2nn(-c3ccccc3)cc2CNc2ccccc2)cc1	< 4.28	> 100	4.42	< 4.28	4.64	< 4.28	> 100	52	< 4.00	< 4.28	< 4.28	> 100	< 4.00	< 4.00	2.3	Ratio CC50/EC50 [17]: >2.6
Brc1ccc(-c2nn(-c3ccccc3)cc2CNc2ccccc2)cc1	< 4.28	> 100	4.70	< 4.28	5.05	< 4.28	> 100	52	< 4.00	< 4.28	< 4.28	> 100	< 4.00	< 4.00	5.8	Ratio CC50/EC50 [17]: >5
FC(F)(F)c1ccc(-c2nn(-c3ccccc3)cc2CNc2ccc(Br)cc2)cc1	< 4.77	> 100	< 4.55	< 4.77	5.30	< 4.77	28	17	< 4.19	< 4.77	< 4.77	64	< 4.00	< 4.55	3.4	
FC(F)(F)c1ccc(-c2nn(-c3ccccc3)cc2CNc2ccc(Cl)cc2)cc1	< 4.10	> 100	< 4.51	< 4.10	< 5.00	< 4.10	31	10	< 4.36	< 4.10	< 4.10	44	< 4.00	< 4.51		
FC(F)(F)c1ccc(NCc2cn(-c3ccccc3)nc2-c2ccccc2)cc1	< 4.12	> 100	< 4.43	< 4.12	< 4.77	< 4.12	37	17	< 4.47	< 4.12	< 4.12	34	< 4.00	< 4.43		
FC(F)(F)c1ccc(NCc2cn(-c3ccccc3)nc2-c2ccc(Cl)cc2)cc1	< 4.74	> 100	< 4.77	< 4.74	< 4.74	< 4.74	17	18	< 4.51	< 4.74	< 4.74	31	< 4.00	< 4.77		
FC(F)(F)c1ccc(NCc2cn(-c3ccccc3)nc2-c2ccc(C(F)(F)F)cc2)cc1	< 4.59	> 100	< 4.43	< 4.59	< 4.59	< 4.59	27	26	< 4.59	< 4.59	< 4.59	26	< 4.00	< 4.57		
Cc1ccc(-c2nn(-c3ccccc3)cc2CNc2ccc(C(F)(F)F)cc2)cc1	< 4.35	> 100	< 4.00	< 4.35	< 4.35	< 4.35	88	45	< 4.00	< 4.35	< 4.35	> 100	< 4.00	< 4.06		
FC(F)(F)c1ccc(NCc2cn(-c3ccccc3)nc2-c2ccc(Br)cc2)cc1	< 4.55	> 100	< 4.55	< 4.55	< 4.55	< 4.55	20	28	< 4.34	< 4.55	< 4.55	46	< 4.00	< 4.70		
C[C@@]1(O)[C@H](O)[C@@H](CO)O[C@H]1n1ccc(N)nc1=O							> 100							5.22		
O=c1cnn([C@@H]2O[C@H](CO)[C@@H](O)[C@H]2O)c(=O)[nH]1 [6-AZAURIDINE]			4.34		6.05		> 100	10							11.1	Ratio CC50/EC50 [17]: >2.2
Nc1nc2c(ncn2COCCO)c(=O)[nH]1 [ACYCLOVIR]				5.55				> 100								
COc1c(C)c2c(c(O)c1C/C=C(\C)CCC(=O)O)C(=O)OC2 [MYCOPHENOLIC ACID]						5.82		19								
Cc1cc(CCCOc2c(C)cc(-c3noc(C(F)(F)F)n3)cc2C)on1 [PLECONARIL]	5.66							80			8.30					
NC(=O)c1ncn([C@@H]2O[C@H](CO)[C@@H](O)[C@H]2O)n1 [RIBAVIRIN]					4.46			> 100	4.72			57			>2.8	Ratio CC50/EC50 [14]: 3
